3 compounds from article PMC8402609, “Guiding the Immune Response to a Conserved Epitope in MSP2, an Intrinsically Disordered Malaria Vaccine Candidate” (Vaccines, 2021) can be followed below.

Assay [1] deals with biotinylated 13-residue peptides (A-I) spanning the C-terminal region of MSP2. The assay can be described thus: Fine specificity of antisera by peptide array ELISA (peptides A-I). The class given is in vivo, mouse. Particulars: individual sera of mice immunised with peptide-KLH conjugate or MSP2 mix, diluted 1:1000; indirect ELISA; peptides C-D span 9H4 epitope, E-G span 4D11 epitope. The protocol: Peptide was conjugated to maleimide-activated KLH (Sigma-Aldrich) following the manufacturer’s protocol. Briefly, 1 mg of each peptide was mixed with 1 mg KLH in the provided buffer for a 200-fold molar excess of peptide to carrier protein. The reaction mixture was degassed under nitrogen and mixed at room temperature (RT) for 2 h. Any unreacted peptide was removed by dialysis against PBS using a 10 kDa cut-off membrane. The extent of conjugation was determined using Ellman’s reagent. Peptide-KLH conjugate stock solution was stored at 4 °C until further use. Prior to immunisation, peptide-KLH conjugates were diluted to 1 mg/mL in PBS and formulated with Montanide ISA720 at an antigen:adjuvant ratio of 3:7 and a final concentration of 0.3 mg/mL. The 3D7 + FC27 MSP2 mix was formulated using 0.15 mg/mL of each allelic form. Female C57BL/6 mice (n = 6 per group) were inoculated subcutaneously with 100 µL containing 30 µg of antigen at weeks 0, 4 and 8, then euthanised at week 10. Sera were collected and stored at −80 °C.
(§1) To determine peptide-KLH binding to 4D11 and 9H4, Maxisorp 96-well microtitre plates (Nunc, Rochester, NY, USA) were coated overnight at 4 °C with 2 µg/mL peptide-KLH in PBS. The plates were blocked with 1% BSA in PBS for 1 h before adding 100 µL of 4D11 and 9H4 IgG in eleven half log10 serial dilutions starting from stock at 1 µg/mL. After 1 h incubation at 4 °C and washing, antigen-bound antibodies were detected with goat anti-mouse IgG (1:2000 dilution) and freshly prepared 2,2-azinobis(3-ethylbenzthiazolinesulfonic acid (ABTS) substrate (1 mm) in citric acid buffer, pH 4.2, containing […]. The absorbance was read at 405 nm using a microplate reader. For determination of peptide-specific antibody titres, peptide-BSA conjugate was coated on the plate at 2 µg/mL. Individual mouse sera were added at a starting dilution of 1000-fold with six half log10 serial dilutions. Endpoint titres were taken as the x-axis intercept of the dilution curve at an absorbance value of three standard deviations (s.d.) greater than OD405 for naïve mouse serum. The fine specificities of the antisera were determined by ELISA using an array of nine biotinylated 13-residue peptides (A-I), which overlap by 2 or 3 residues and spanned the C-terminal region of MSP2 [11, 13]. Maxisorp 96-well microtitre plates (Nunc) were coated overnight at 4 °C with 1 µg/mL streptavidin in PBS. The plates were blocked with 1% BSA in PBS for 2 h before adding 1:500 biotinylated peptides. Individual sera samples were diluted 1:1000 in blocking solution before addition to the peptide array. Antibody was detected with the same protocol as mentioned above.
To characterise the response against these dimeric peptides further, the specificity of the induced antibodies was determined by indirect ELISA using an array of nine biotinylated peptides that spanned the epitopes recognised by the 4D11 and 9H4 mAbs (peptides A-I) (Table 3). Peptides C and D spanned the 9H4 epitope, whilst peptides E to G spanned the 4D11 epitope. […] However, the response against MSP2 was largely dominated by a single mouse in the group.
(In general: An ELISA detects its analyte on a solid surface through an enzyme-linked reagent.)

Assay [2] relates to FC27 (D10 clone) merozoites. The assay can be described thus: Merozoite ELISA with pooled mouse sera, FC27 merozoites. The class given is in vivo, P. falciparum. The settings on record: pooled sera of immunised mice, two-fold dilutions from 1:500; merozoites 1 × 10^7/well; OD 450 nm; rank order in words. The protocol: (§2) The reactivity of mouse polyclonal antibodies with merozoites was determined by ELISA using merozoites from both the 3D7 and FC27 (D10 clone) strains of P. falciparum. The parasites were cultured in human erythrocytes at a haematocrit of 3% in RPMI media supplemented with […]. Viable merozoites were isolated as described previously. Highly synchronised late-stage schizonts were magnet-purified via a MACS magnet separation column (Miltenyi Biotec, Macquarie Park, Australia) and treated with E64 protease inhibitor (ThermoFisher Scientific, Scoresby, Australia) until mature merozoites were formed. Merozoites were released forcing them through a 1.2 µm filter.
Purified whole merozoites were resuspended in PBS supplemented with a cocktail of protease inhibitors (Roche, Castle Hill, Australia). Isolated merozoites were used to coat Nunc Maxisorp™ plates at 1 × 10^7/well and incubated overnight at 4 °C. The plates were then blocked with 1% casein in PBS at 37 °C for 2 h (or overnight at 4 °C). Pooled sera samples were added to wells at two-fold serial dilution in duplicate with a starting dilution of 1:500 and incubated at RT for 1 h. The plates were further incubated with HRP-conjugated goat anti-mouse IgG antibody diluted at 1:1000 in 0.1% casein in PBS at RT for 1 h. The plates were washed six times with PBS between each incubation step. […] The OD was measured at 450 nm. […]

Assay [3] deals with 3D7 merozoites. The assay is described as follows: Merozoite ELISA with pooled mouse sera, 3D7 merozoites. In kind it is in vivo, P. falciparum. Particulars: pooled sera of immunised mice, two-fold dilutions from 1:500; merozoites 1 × 10^7/well; OD 450 nm; rank order in words. The protocol: as §2
Purified whole merozoites were resuspended in PBS supplemented with a cocktail of protease inhibitors (Roche, Castle Hill, Australia). Isolated merozoites were used to coat Nunc Maxisorp™ plates at 1 × 10^7/well and incubated overnight at 4 °C. The plates were then blocked with 1% casein in PBS at 37 °C for 2 h (or overnight at 4 °C). Pooled sera samples were added to wells at two-fold serial dilution in duplicate with a starting dilution of 1:500 and incubated at RT for 1 h. The plates were further incubated with HRP-conjugated goat anti-mouse IgG antibody diluted at 1:1000 in 0.1% casein in PBS at RT for 1 h. The plates were washed six times with PBS between each incubation step. Finally, 3,3′,5,5′-tetramethylbenzidine (TMB) substrate (Thermo Fisher Scientific, Scoresby, Australia) was added to the wells for the development of colour for 15 min and the reaction was stopped with 1 M sulfuric acid. The OD was measured at 450 nm.
The ability to induce an immune response that can recognise parasite MSP2 is essential in the design of an MSP2-based peptide vaccine. We isolated merozoites from both 3D7 and FC27 (D10 clone) strains of P. falciparum, coated them on ELISA plates and probed them with sera from the immunised mice (Figure 6). mAb 4D11 and the MSP2 mix pre-bleed were also included as positive and negative controls, respectively.

The target in assay [4] is 9H4 IgG. The assay can be described thus: SPR competition binding assay, mAb 9H4. Also on record: species or system mouse. The settings on record: SPR competition assay (Biacore T200); 3D7 MSP2 immobilised on CM5 chip; eight three-fold dilutions of peptide from 10 µM with 50 nM 9H4 IgG; alanine scan of 16-residue MSP2_207–222; read-out: Kd against 9H4 IgG. The protocol: (§3) Affinities for peptide epitopes and dimer peptides to 4D11 and 9H4 IgG were measured by surface plasmon resonance (SPR) (Biacore T200, GE Healthcare, Parramatta, Australia) using a competition assay method developed previously. First, 3D7 MSP2 was immobilised on a CM5 chip. To determine binding, eight three-fold dilutions of peptide, from 10 µM stock were added with 50 nM 4D11/9H4 IgG to compete with the immobilised antigen. A standard curve was established by flowing eight two-fold dilutions of 4D11 or 9H4 IgG from a 100 nM stock solution.
In our previous work, the minimal epitope and key residues involved in 4D11 binding were defined as the 8-residue peptide 3D7-MSP2_215–222, with Lys216, Glu217 and Asn218 crucial for binding. To characterise the epitope of 9H4 and compare it with that of 4D11, the same alanine-scan peptides were used to probe 9H4 binding (Figure 1A,B). Affinities for 9H4 binding were measured by SPR, using a competition binding assay described previously.
On the technique in general: Surface plasmon resonance follows binding to a sensor surface in real time, without labels.

The target of assay [5] is 4D11 IgG. The assay can be described thus: SPR competition binding assay, mAb 4D11. Particulars: read-out: Kd against 4D11 IgG. On the set-up: species or system mouse. The protocol:
as §3
Following the MD simulations, each peptide was synthesised by standard Fmoc synthesis. Orthogonal protection of cysteines was used to ensure that the desired disulfide bond was formed, leaving a single free cysteine for conjugation to an appropriate carrier for immunisation. […] Consequently, disulfide bond formation and cyclisation coupling were performed in solution. To determine if the additions incorporated into the dimer sequence hindered binding to 4D11, SPR was used to measure their binding affinity to the mAb (Table 2). […] For immunisations, the commonly used carrier protein, keyhole limpet hemocyanin (KLH) was chosen. As conjugation to KLH required a free thiol, an additional cysteine residue was included in all of the peptides (Figure 2).

Assay [6] relates to 4D11 IgG. The assay can be described thus: ELISA binding of 4D11 IgG against BSA-peptide conjugates. The settings on record: peptide maleimide-conjugated to BSA coated on plate. On the set-up: species or system mouse. The protocol:
as §1, with “To determine peptide-KLH binding to 4D11 and 9H4, Maxisorp 96-well microtitre plates (Nunc, Rochester, NY, USA) were coated overnight at 4 °C with 2 µg/mL peptide-KLH in PBS.” left out, “Maxisorp 96-well microtitre plates (Nunc) were coated overnight at 4 °C with 1 µg/mL streptavidin in PBS. The plates were blocked with 1% BSA in PBS for 2 h before adding 1:500 biotinylated peptides. Individual sera samples were diluted 1:1000 in blocking solution before addition to the peptide array.” left out
Anti-peptide antibody titres in the sera of immunised mice were determined using ELISA plates coated with the corresponding peptide-bovine serum albumin (BSA) conjugates. […]

Where two headings read alike, the source gives them in different places. Where a SMILES comes first, the peptide text is derived from it. Bridges are numbered along the chain shown (N, C = ends). Roman numbers before positions name the chains, in order.

As for `CC(=O)N[C@@H](CC(N)=O)C(=O)N[C@@H](CCCCN)C(=O)N[C@@H](CCC(=O)O)C(=O)N[C@@H](CC(N)=O)C(=O)N[C@@H](CSSC[C@H](NC(=O)[C@H](CC(N)=O)NC(=O)[C@H](CCC(=O)O)NC(=O)[C@H](CCCCN)NC(=O)[C@H](CC(N)=O)NC(C)=O)C(=O)NCC(=O)N[C@@H](C)C(=O)N[C@@H](C)C(=O)N[C@@H](CS)C(N)=O)C(=O)NCC(=O)N[C@@H](C)C(=O)N[C@@H](C)C(N)=O` [Peptide D1] (I: Ac-NKENCGAAC-NH2 / II: Ac-NKENCGAA-NH2; disulfide I:5-II:5), the “specificity of the induced antibodies (peptide array A-I)” value in assay [1] is listed as “almost exclusively directed to the 4D11 epitope”. For the same compound, in assay [2], the “reactivity of pooled sera with FC27 merozoites” value is on record as “weak reactivity”. Moreover, the “reactivity of pooled sera with 3D7 merozoites” value in assay [3] is on record as “weak reactivity”.
As for `CC(=O)N[C@@H](CO)C(=O)N[C@@H](CCC(N)=O)C(=O)N[C@@H](C)C(=O)N[C@@H](CCC(=O)O)C(=O)N[C@H]1CSSC[C@@H](C(=O)NCC(=O)N[C@@H](C)C(=O)N[C@@H](C)C(N)=O)NC(=O)[C@H](CC(N)=O)NC(=O)[C@H](CCC(=O)O)NC(=O)[C@H](CCCCN)NC(=O)[C@H](CC(N)=O)NC(=O)CNC(=O)[C@H](CC(=O)O)NC(=O)[C@H]([C@@H](C)O)NC1=O` [Peptide K209A] (Ac-SQAECTDGNKENCGAA-NH2; disulfide 5-13), the Kd in assay [4] stood at 7300 nM; in assay [5] (SPR competition assay (Biacore T200), 3D7 MSP2 immobilised on CM5 chip, eight three-fold dilutions of peptide from 10 µM with 50 nM 4D11 IgG, alanine scan of 16-residue MSP2_207–222), 300 nM; in assay [5] (SPR competition binding assay, peptides for KLH conjugation (Table 2), 3D7 MSP2 on CM5 chip, 50 nM 4D11 IgG), 200 nM. In addition, in assay [1], the “specificity of the induced antibodies (peptide array A-I)” value is “shifted antibody recognition towards the 4D11-specific epitope represented by peptides E and F”. The “reactivity of pooled sera with 3D7 merozoites” value in assay [3] was “followed by K209A, A1, C1 and L1”.
In the case of “SKWICANRSVCPI [non-relevant peptide maleimide-conjugated to BSA, linker control]”, the “4D11 IgG binding to BSA-peptide conjugate” value in assay [6] is on record as “no 4D11 IgG binding”.

Usually Kd stands for the constant that tells how readily two partners part at equilibrium.
